The values below come from PMC6896172, “Successful Targeting of the Warburg Effect in Prostate Cancer by Glucose-Conjugated 1,4-Naphthoquinones” (Cancers, 2019).

In general, IC50 refers to the concentration at which inhibition is half-maximal.

In data set [1] the test system is PC-3 cells. Description: MTT cytotoxicity assay in PC-3 cells. The class given is cell-based, human. The text has this:
For general experiments human prostate cancer cell lines PC-3 and DU145 (docetaxel-resistant, androgen-independent, AR-FL(−), AR-V7(−)), 22Rv1 and VCaP (docetaxel-sensitive, androgen-independent, AR-FL(+), AR-V7(+), and LNCaP (docetaxel sensitive, androgen-dependent, AR-FL(+), AR-V7(−) were used. PC-3, 22Rv1, LNCaP cells as well as the human prostate non-cancer cells PNT2 and RWPE-1 were purchased from ATCC (Manassas, VA, USA). VCaP were purchased from ECACC (Salisbury, UK). The human fibroblast cell line MRC-9, the human embryonic kidney cell line HEK 293T, as well as the human umbilical vascular endothelial cell line HUVEC were kindly donated by Prof. Dr. Dr. med. Sonja Loges (University Medical Center Hamburg-Eppendorf, Hamburg, Germany). Cells were cultured according to the manufacturers’ instructions and were recently authenticated by a commercial service (Multiplexion, Heidelberg, Germany). Culture conditions are described in the Supplementary Information.
(§1) MTT (3-(4,5-dimethylthiazol-2-yl)-2,5-diphenyltetrazolium bromide) cytotoxicity assay was used for the evaluation of cytotoxicity of the compounds or their combinations. Experiments were performed as previously described. In brief, 6000 cells/well were seeded in 96-well plate, incubated overnight, and treated with the drugs in 100 µL/well of 10% FBS/RPMI media containing 2 g/L of D-(+)-glucose for 48 h, unless otherwise stated. For 2 h treatment the cells were treated with the drugs for 2 h in the culture media, then the media was exchanged to fresh drug-free media (100 µL/well) containing MTT reagent and the further steps were performed as previously described.
Table S4. Cytotoxic activity of the synthesized compounds. Cytotoxicity was determined in human prostate cancer PC-3 cells versus human prostate non-cancer
PNT2 cells after 48 h of treatment, as well as its ratio. IC50 was evaluated using MTT assay. SI–selectivity index. #–the IC50s in both cell lines were >100 µM.
Anisomycin was used as a reference substance.
No Formula IC50(PC-3) IC50(PNT2) SI […]
(Formazan colour is commonly taken as a measure of viable cells.)

Data set [2] concerns MRC-9 cells. Description: MTT cytotoxicity assay in MRC-9 cells. The class given is cell-based. The following applies: Homo sapiens, MRC9, 48 h of treatment, non-cancer. As for the experimental part: (§2) Dr. Dr. med. Sonja Loges (University Medical Center Hamburg-Eppendorf, Hamburg, Germany). Cells were cultured according to the manufacturers’ instructions and were recently authenticated by a commercial service (Multiplexion, Heidelberg, Germany). Culture conditions are described in the Supplementary Information.
as §1

Data set [3] deals with RWPE-1 cells. Description: MTT cytotoxicity assay in RWPE-1 cells. The class given is cell-based. Conditions: Homo sapiens, 48 h of treatment, non-cancer. How it is done:
as §2, §1

The test system of data set [4] is HUVEC cells. Description: MTT cytotoxicity assay in HUVEC cells. The following applies: Homo sapiens, 48 h of treatment, non-cancer. It counts as cell-based. As for the experimental part: as §2, §1
In data set [5] the test system is VCaP cells. Description: MTT cytotoxicity assay in VCaP cells. The class given is cell-based. Conditions: Homo sapiens, 48 h of treatment, cancer. How it is done: as §2, §1
The test system of data set [6] is 22Rv1 cells. Description: MTT cytotoxicity assay in 22Rv1 cells. The following applies: for IC50: Homo sapiens. The class given is cell-based, human. How it is done: as §2, §1
Data set [7] relates to LNCaP cells. Description: MTT cytotoxicity assay in LNCaP cells. The class given is cell-based. The following applies: Homo sapiens, 48 h of treatment, cancer. How it is done: as §2, §1
The test system of data set [8] is 22Rv1 cells. Description: Trypan blue exclusion viability assay. The class given is cell-based. The following applies: Homo sapiens, 48 h of treatment. How it is done:
The in vitro effect of the drugs on cell viability and proliferation was evaluated using trypan blue exclusion assay as described before with minor modifications. In brief, cells (0.2 × 10^6 cells/well) were seeded in 12-well plates, incubated overnight, the media was replaced with fresh media (1 mL/well) and treated with the drugs for 48 h. Cells were harvested by trypsination and the viability was measured using trypan blue staining and Beckman Coulter Vi-CELL (Beckman Coulter, Krefeld, Germany).

Data set [9] concerns 22Rv1 cells. Description: Intracellular ROS (CM-H2DCFDA, flow cytometry). The following applies: 2 h of treatment. It counts as cell-based, human. As for the experimental part: Intracellular ROS levels were estimated using the ROS-sensitive CM-H2DCFDA reagent (Cat. No. C6827, Molecular probes, Invitrogen, Eugene, OR, USA) as described before. In brief, 22Rv1 cells were seeded in 12-well plates (0.2 × 10^6 cells/well in 1 mL/well of media) and incubated overnight. The media was changed into freshly made pre-warmed 4 µM CM-H2DCFDA/PBS (0.5 mL/well) and incubated for 30 min (37 °C, 5% CO2, in the dark). Then, the CM-H2DCFDA solution was exchanged with 1 mL/well of pre-warmed PBS containing the drugs or H2O2 (positive control) at the indicated concentrations. After 2 h of incubation the cells were trypsinized and immediately analyzed by flow cytometry technique according to the manufacture’s protocols.
Background: A flow cytometer gives signals particle by particle.

Data set [10] relates to 22Rv1 cells. Description: Colony formation assay. The class given is cell-based, human. Conditions: 22Rv1 cells treated with non-cytotoxic concentrations for 48 h. As for the experimental part: Colony formation assays were performed as described before. In brief, cells were treated with the drugs for 48 h and then 100 alive cells were plated into each well of 6-well plates and incubated for 10 days. Surviving colonies were fixed, stained with Giemsa solution and counted.

Data set [11] concerns 22Rv1 cells. Description: Western blotting of treated cells. It counts as cell-based, human. How it is done: (§3) Preparation of protein extracts for western blotting was performed as described previously. In brief, for western blotting, 1 × 10^6 cells/well were seeded in Petri dishes (ø 6 cm TC Dish (Sarstedt, Numbrecht, Germany) in 5 mL/dish), incubated overnight and treated with drugs in 5 mL/dish for an indicated time. Cells were harvested using a cell scraper, pelleted, and resuspended in the lysis buffer containing protease and phosphatase inhibitors. Further sample preparation and western blotting were performed as previously described with slight modifications. Relative optical density of the detected bands was quantified with Quantity One 4.6 software (Bio-Rad, Hercules, CA, USA). The primary and secondary antibodies used are listed in the Supplementary Information.
On the technique in general: In western blotting, separated proteins are transferred to a membrane and probed.

In data set [12] the test system is 22Rv1 cells. Description: Cell fractionation followed by Western blotting. The class given is cell-based, human. The following applies: 48 h. As for the experimental part: as §3
22Rv1 cells were seeded in T75 culture bottles (4 × 10^6 cells/bottle in 20 mL/bottle), treated for 48 h and harvested by scratching. The further separation of cytosolic, mitochondrial and nuclear fractions was performed using the Cell Fractionation Kit ab109719 (abcam, Cambridge, MA) as previously described. Mitochondrial and cytosolic fractions were concentrated using Amicon® Ultra-2 Centrifugal Filter device (Cat. No. UFC203024, Merck, Darmstadt, Germany). Nuclear fractions were additionally homogenized using QIAshedder kit (QIAGEN, Hilden, Germany).

On to `CC1(C)OC2OC(C(O)COC3=CC(=O)c4cccc(O)c4C3=O)C(O)C2O1` (stereo not shown) [Compound 11], for which the IC50 is 2070 nM in data set [1] (Homo sapiens, PC-3, 48 h, 48 h of treatment); 3740 nM in data set [2]; 1480 nM in [3]; 4310 nM in [4]; 3110 nM in data set [5]; 710 nM in data set [6] (22Rv1, 48 h of treatment, cancer, read-out: IC50 (22Rv1)). For the same compound, the IC50 stood at 20400 nM in data set [6] (22Rv1 cells, 2 h treatment, read-out: IC50 after 2 h of treatment); 570 nM in data set [7]; 2040 nM in [8]. Moreover, the “SI [IC50(PNT2) / IC50(PC-3)]” value in [1] (ratio of IC50 in PNT2 cells to IC50 in PC-3 cells, 48 h) came to 2.40. In data set [6] (22Rv1 cells, 1 mM NaC 1 h then co-treatment 48 h, FBS- and glucose-free RPMI), the “effect of N-acetyl-L-cysteine pre-treatment on cytotoxic activity” value is “significantly suppressed the cytotoxic activity”. Besides, the “effect on ROS level” value in data set [9] is “remarkable and significant increase of the ROS level”. In addition, in data set [10], the “cancer cell colony formation” value is “suppress cancer cell colony formation”. In addition, the “cleavage of caspase-9” value in data set [11] (2 h and 48 h treatment) is listed as “observed already after 2 h”. Moreover, the ERK1/2 activity result in data set [11] (2 h treatment) is “suppressed”. Besides, the MEK1/2 alteration entry in data set [11] (2 h treatment) is listed as “No significant alteration”. Besides, in data set [11] (2 h treatment), the “activation of Akt” value is “slight Akt activation”. In [11] (2 h treatment), the “activation of p38 and JNK1/2” value was “pronounced activation”. Further, the “AR-FL and AR-V7 expression” value in data set [11] (48 h treatment) is “downregulated both, AR full length (AR-FL) and AR-V7”. Besides, in data set [11] (48 h treatment), the “Bax and Bcl-2 expression” value was “up-regulation of Bax and down-regulation of Bcl-2”. Besides, in [11] (pre-cytotoxic and cytotoxic concentrations, 48 h), the “LC3B-II and SQSTM1 levels (autophagy markers)” value is “accumulation of both, LC3B-II and SQSTM1”. For the same compound, in data set [12], the “release of mitochondrial proteins AIF and cytochrome C” value is “release of mitochondrial proteins”.
